Measurements published in the NIST ThermoML archive (doi:10.1021/je3011979).

Legend:
[1] = xn = mol fraction of the nth substance listed; details: 101 kPa, Liquid, Vibrating tube method
[2] = excess molar enthalpy (molar enthalpy of mixing); xn = mol fraction of the nth substance listed; details: 101 kPa, Liquid, Calvet calorimetry

CCCOC(C)=O [propyl ethanoate] + CCCCCCCC
Details | excess molar enthalpy [kcal/mol] | mass density [kg/m3]
[1], 291.15 K, x1 = 0.012 | – | 705.7
[1], 291.15 K, x1 = 0.0405 | – | 708.9
[1], 291.15 K, x1 = 0.1465 | – | 721.9
[1], 291.15 K, x1 = 0.1905 | – | 727.8
[1], 291.15 K, x1 = 0.2679 | – | 738.6
[1], 291.15 K, x1 = 0.3573 | – | 752.2
[1], 291.15 K, x1 = 0.4206 | – | 762.5
[1], 291.15 K, x1 = 0.4808 | – | 772.7
[1], 291.15 K, x1 = 0.5357 | – | 782.6
[1], 291.15 K, x1 = 0.6206 | – | 798.8
[1], 291.15 K, x1 = 0.6668 | – | 808.1
[1], 291.15 K, x1 = 0.7082 | – | 816.9
[1], 291.15 K, x1 = 0.7644 | – | 829.3
[1], 291.15 K, x1 = 0.8181 | – | 841.9
[1], 291.15 K, x1 = 0.8638 | – | 853.1
[1], 291.15 K, x1 = 0.9109 | – | 865.1
[1], 291.15 K, x1 = 0.9798 | – | 883.9
[1], 291.15 K, x1 = 1 | – | 889.6
[1], 298.15 K, x1 = 0.0149 | – | 700.3
[1], 298.15 K, x1 = 0.0603 | – | 705.4
[1], 298.15 K, x1 = 0.1039 | – | 710.8
[1], 298.15 K, x1 = 0.2154 | – | 725.3
[1], 298.15 K, x1 = 0.2536 | – | 730.6
[1], 298.15 K, x1 = 0.3283 | – | 741.5
[1], 298.15 K, x1 = 0.3895 | – | 751.1
[1], 298.15 K, x1 = 0.4733 | – | 765
[1], 298.15 K, x1 = 0.5382 | – | 776.6
[1], 298.15 K, x1 = 0.5953 | – | 787.3
[1], 298.15 K, x1 = 0.6543 | – | 799
[1], 298.15 K, x1 = 0.7043 | – | 809.4
[1], 298.15 K, x1 = 0.7628 | – | 822.2
[1], 298.15 K, x1 = 0.8145 | – | 834.2
[1], 298.15 K, x1 = 0.862 | – | 845.6
[1], 298.15 K, x1 = 0.9221 | – | 860.9
[1], 298.15 K, x1 = 0.9349 | – | 864.3
[1], 298.15 K, x1 = 1 | – | 882.5
[1], 318.15 K, x1 = 0.044 | – | 687.1
[1], 318.15 K, x1 = 0.0919 | – | 692.5
[1], 318.15 K, x1 = 0.1675 | – | 701.7
[1], 318.15 K, x1 = 0.2438 | – | 711.7
[1], 318.15 K, x1 = 0.3148 | – | 721.6
[1], 318.15 K, x1 = 0.3866 | – | 732.3
[1], 318.15 K, x1 = 0.4471 | – | 741.8
[1], 318.15 K, x1 = 0.5188 | – | 753.7
[1], 318.15 K, x1 = 0.5695 | – | 762.8
[1], 318.15 K, x1 = 0.6293 | – | 773.9
[1], 318.15 K, x1 = 0.6793 | – | 783.8
[1], 318.15 K, x1 = 0.7422 | – | 796.8
[1], 318.15 K, x1 = 0.7792 | – | 804.8
[1], 318.15 K, x1 = 0.8435 | – | 819.5
[1], 318.15 K, x1 = 0.8743 | – | 826.9
[1], 318.15 K, x1 = 0.9284 | – | 840.5
[1], 318.15 K, x1 = 1 | – | 859.8
[1], 328.15 K, x1 = 0.0249 | – | 676.7
[1], 328.15 K, x1 = 0.1032 | – | 685.4
[1], 328.15 K, x1 = 0.1801 | – | 694.6
[1], 328.15 K, x1 = 0.2554 | – | 704.4
[1], 328.15 K, x1 = 0.3244 | – | 713.9
[1], 328.15 K, x1 = 0.4 | – | 725
[1], 328.15 K, x1 = 0.4761 | – | 737
[1], 328.15 K, x1 = 0.5341 | – | 746.7
[1], 328.15 K, x1 = 0.5975 | – | 757.9
[1], 328.15 K, x1 = 0.6603 | – | 769.7
[1], 328.15 K, x1 = 0.7147 | – | 780.7
[1], 328.15 K, x1 = 0.7686 | – | 791.9
[1], 328.15 K, x1 = 0.8149 | – | 802.1
[1], 328.15 K, x1 = 0.8651 | – | 813.8
[1], 328.15 K, x1 = 0.9233 | – | 828
[1], 328.15 K, x1 = 0.9404 | – | 832.4
[1], 328.15 K, x1 = 1 | – | 848.3
[2], 291.15 K, x1 = 0.0879 | 0.109 | –
[2], 291.15 K, x1 = 0.1784 | 0.183 | –
[2], 291.15 K, x1 = 0.2664 | 0.2424 | –
[2], 291.15 K, x1 = 0.3472 | 0.2808 | –
[2], 291.15 K, x1 = 0.4208 | 0.3023 | –
[2], 291.15 K, x1 = 0.486 | 0.3102 | –
[2], 291.15 K, x1 = 0.5436 | 0.3088 | –
[2], 291.15 K, x1 = 0.5927 | 0.3004 | –
[2], 291.15 K, x1 = 0.618 | 0.2913 | –
[2], 291.15 K, x1 = 0.6703 | 0.2722 | –
[2], 291.15 K, x1 = 0.7256 | 0.2438 | –
[2], 291.15 K, x1 = 0.7843 | 0.206 | –
[2], 291.15 K, x1 = 0.8412 | 0.164 | –
[2], 291.15 K, x1 = 0.8983 | 0.112 | –
[2], 291.15 K, x1 = 0.9546 | 0.0557 | –
[2], 298.15 K, x1 = 0.0883 | 0.103 | –
[2], 298.15 K, x1 = 0.1747 | 0.174 | –
[2], 298.15 K, x1 = 0.2568 | 0.2309 | –
[2], 298.15 K, x1 = 0.3398 | 0.2701 | –
[2], 298.15 K, x1 = 0.4117 | 0.2913 | –
[2], 298.15 K, x1 = 0.4788 | 0.3004 | –
[2], 298.15 K, x1 = 0.5346 | 0.2985 | –
[2], 298.15 K, x1 = 0.5849 | 0.2913 | –
[2], 298.15 K, x1 = 0.6055 | 0.2866 | –
[2], 298.15 K, x1 = 0.655 | 0.2722 | –
[2], 298.15 K, x1 = 0.7074 | 0.2507 | –
[2], 298.15 K, x1 = 0.7607 | 0.222 | –
[2], 318.15 K, x1 = 0.0767 | 0.0942 | –
[2], 318.15 K, x1 = 0.1676 | 0.177 | –
[2], 318.15 K, x1 = 0.2591 | 0.2433 | –
[2], 318.15 K, x1 = 0.3352 | 0.2818 | –
[2], 318.15 K, x1 = 0.4086 | 0.305 | –
[2], 318.15 K, x1 = 0.4719 | 0.3117 | –
[2], 318.15 K, x1 = 0.5293 | 0.3098 | –
[2], 318.15 K, x1 = 0.5791 | 0.3004 | –
[2], 318.15 K, x1 = 0.5859 | 0.2983 | –
[2], 318.15 K, x1 = 0.6316 | 0.2847 | –
[2], 318.15 K, x1 = 0.6848 | 0.2648 | –
[2], 318.15 K, x1 = 0.7377 | 0.2392 | –
[2], 318.15 K, x1 = 0.7936 | 0.2065 | –
[2], 318.15 K, x1 = 0.8521 | 0.163 | –
[2], 318.15 K, x1 = 0.9064 | 0.114 | –
[2], 318.15 K, x1 = 0.9555 | 0.0595 | –
